7 cell lines from the supplement of paper PMC10307832 can be followed below.

Common to all, as to experiment: relative viability (nuclei count vs DMSO), 5 days (fraction); higher = more cells survive
Compound in assay [1]: CC1=C(N=C(N=C1N)[C@H](CC(=O)N)NC[C@@H](C(=O)N)N)C(=O)N[C@@H]([C@H](C2=CN=CN2)OC3C(C(C(C(O3)CO)O)O)OC4C(C(C(C(O4)CO)O)OC(=O)N)O)C(=O)N[C@H](C)[C@H]([C@H](C)C(=O)N[C@@H]([C@@H](C)O)C(=O)NCCC5=NC(=CS5)C6=NC(=CS6)C(=O)NCCC[S+](C)C)O [Bleomycin] + COc1cccc2cc(-c3nc([C@H]4CC[C@H](C(=O)O)CC4)n4ncnc(N)c34)[nH]c12 [OSI-027] (partner 0.5 µM)
The settings on record: main component drawn. The essentials:
(§1)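 Lung cancer cell lines were seeded in 1536-well plates and dosed by pin tool the next day, with either a single drug or a fixed anchor-drug dose combined with five library-drug doses (not always all listed) spaced in √10 steps. Five days later, one step fixed the cells and stained their nuclei (final 0.05% Triton X-100, 1% formaldehyde, 1 ug/ml Hoechst), and nuclei were counted on 4× images. Relative viability is the nuclei count in treated wells divided by the count in vehicle wells, and each value is the median of duplicate plates.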

Compound in assay [2]: COc1cc([C@@H]2c3cc4c(cc3[C@@H](O[C@@H]3O[C@@H]5CO[C@@H](C)O[C@H]5[C@H](O)[C@H]3O)[C@H]3COC(=O)[C@H]23)OCO4)cc(OC)c1O [Etoposide] + CCNC(=O)c1noc(-c2cc(C(C)C)c(O)cc2O)c1-c1ccc(CN2CCOCC2)cc1 [Luminespib] (partner 0.01 µM)
Put shortly:
as §1

Compound in assay [3]: COc1cc([C@@H]2c3cc4c(cc3[C@@H](O[C@@H]3O[C@@H]5CO[C@@H](C)O[C@H]5[C@H](O)[C@H]3O)[C@H]3COC(=O)[C@H]23)OCO4)cc(OC)c1O [Etoposide] + CS(=O)(=O)CCNCc1ccc(-c2ccc3ncnc(Nc4ccc(OCc5cccc(F)c5)c(Cl)c4)c3c2)o1 [Lapatinib] (partner 2 µM)
Put shortly:
as §1

Compound in assay [4]: COc1cc([C@@H]2c3cc4c(cc3[C@@H](O[C@@H]3O[C@@H]5CO[C@@H](C)O[C@H]5[C@H](O)[C@H]3O)[C@H]3COC(=O)[C@H]23)OCO4)cc(OC)c1O [Etoposide] + NC(=O)Nc1cc(-c2cccc(F)c2)sc1C(=O)N[C@H]1CCCNC1 [AZD7762] (partner 0.2 µM)
The essentials:
as §1

Take LC-2-ad: the relative viability in assay [1] (first compound 0.01 µM) was determined as 0.552; in assay [1] (first compound 0.03162 µM), 0.711; in assay [1] (first compound 0.1 µM), 0.382; in assay [1] (first compound 0.3162 µM), 0.302; in assay [1] (first compound 1 µM), 0.221; in assay [2] (first compound 0.01 µM), 0.899. Besides, the relative viability was determined as 0.833 in assay [2] (first compound 0.03162 µM); 0.711 in assay [2] (first compound 0.1 µM); 0.34 in assay [2] (first compound 0.3162 µM); 0.305 in assay [2] (first compound 1 µM); 0.867 in assay [3] (first compound 0.01 µM); 0.961 in assay [3] (first compound 0.03162 µM). For the same cell line, the relative viability in assay [3] (first compound 0.1 µM) was found to be 0.906; in assay [3] (first compound 0.3162 µM), 0.649; in assay [3] (first compound 1 µM), 0.154; in assay [4] (first compound 0.01 µM) it was 0.762; in assay [4] (first compound 0.03162 µM), 0.882; in assay [4] (first compound 0.1 µM) it was 0.853. The relative viability is 0.741 in assay [4] (first compound 0.3162 µM) and 0.571 in assay [4] (first compound 1 µM).

Take NCI-H1437: the relative viability in assay [1] (first compound 0.01 µM) worked out at 0.76; in assay [1] (first compound 0.03162 µM) it was 0.848; in assay [1] (first compound 0.1 µM), 0.748; in assay [1] (first compound 0.3162 µM), 0.522; in assay [1] (first compound 1 µM), 0.368; in assay [2] (first compound 0.01 µM), 1.1. Moreover, the relative viability worked out at 1.07 in assay [2] (first compound 0.03162 µM); 1.14 in assay [2] (first compound 0.1 µM); 0.7 in assay [2] (first compound 0.3162 µM); 0.509 in assay [2] (first compound 1 µM); 0.754 in assay [3] (first compound 0.01 µM); 0.837 in assay [3] (first compound 0.03162 µM). The relative viability worked out at 0.577 in assay [3] (first compound 0.1 µM); 0.398 in assay [3] (first compound 0.3162 µM); 0.186 in assay [3] (first compound 1 µM); 1.03 in assay [4] (first compound 0.01 µM); 1.11 in assay [4] (first compound 0.03162 µM); 1.14 in assay [4] (first compound 0.1 µM). Also, the relative viability was determined as 1.07 in assay [4] (first compound 0.3162 µM) and 0.722 in assay [4] (first compound 1 µM).

For the cell line H3255, the relative viability was 0.524 in assay [1] (first compound 0.01 µM); 0.6 in assay [1] (first compound 0.03162 µM); 0.504 in assay [1] (first compound 0.1 µM); 0.53 in assay [1] (first compound 0.3162 µM); 0.429 in assay [1] (first compound 1 µM); 0.877 in assay [2] (first compound 0.01 µM). Besides, the relative viability in assay [2] (first compound 0.03162 µM) was 0.829; in assay [2] (first compound 0.1 µM), 0.576; in assay [2] (first compound 0.3162 µM), 0.703; in assay [2] (first compound 1 µM), 0.379; in assay [3] (first compound 0.01 µM) it was 0.234; in assay [3] (first compound 0.03162 µM) it was 0.241. The relative viability came to 0.228 in assay [3] (first compound 0.1 µM); 0.262 in assay [3] (first compound 0.3162 µM); 0.196 in assay [3] (first compound 1 µM); 0.949 in assay [4] (first compound 0.01 µM); 0.95 in assay [4] (first compound 0.03162 µM); 0.726 in assay [4] (first compound 0.1 µM). The relative viability in assay [4] (first compound 0.3162 µM) is 0.66; in assay [4] (first compound 1 µM) it was 0.668.

NCI-H1792: the relative viability in assay [1] (first compound 0.01 µM) was found to be 0.728; in assay [1] (first compound 0.03162 µM), 0.863; in assay [1] (first compound 0.1 µM), 0.649; in assay [1] (first compound 0.3162 µM) it was 0.459; in assay [1] (first compound 1 µM), 0.338; in assay [2] (first compound 0.01 µM), 0.317. Moreover, the relative viability stood at 0.472 in assay [2] (first compound 0.03162 µM); 0.205 in assay [2] (first compound 0.1 µM); 0.215 in assay [2] (first compound 0.3162 µM); 0.248 in assay [2] (first compound 1 µM); 0.939 in assay [3] (first compound 0.01 µM); 0.832 in assay [3] (first compound 0.03162 µM). The relative viability in assay [3] (first compound 0.1 µM) was determined as 0.883; in assay [3] (first compound 0.3162 µM) it was 0.798; in assay [3] (first compound 1 µM), 0.595; in assay [4] (first compound 0.01 µM), 0.485; in assay [4] (first compound 0.03162 µM), 0.661; in assay [4] (first compound 0.3162 µM), 0.471. For the same cell line, in assay [4] (first compound 1 µM), the relative viability amounted to 0.122.

With NCI-H2126, the relative viability in assay [1] (first compound 0.01 µM) is 0.644; in assay [1] (first compound 0.03162 µM), 0.774; in assay [1] (first compound 0.1 µM) it was 0.738; in assay [1] (first compound 0.3162 µM) it was 0.522; in assay [1] (first compound 1 µM), 0.585; in assay [2] (first compound 0.01 µM) it was 0.927. Moreover, the relative viability is 0.877 in assay [2] (first compound 0.03162 µM); 0.545 in assay [2] (first compound 0.1 µM); 0.622 in assay [2] (first compound 0.3162 µM); 0.33 in assay [2] (first compound 1 µM); 0.784 in assay [3] (first compound 0.01 µM); 0.756 in assay [3] (first compound 0.03162 µM). Moreover, the relative viability in assay [3] (first compound 0.1 µM) is 0.52; in assay [3] (first compound 0.3162 µM), 0.595; in assay [3] (first compound 1 µM), 0.383; in assay [4] (first compound 0.01 µM), 0.93; in assay [4] (first compound 0.03162 µM) it was 1.08; in assay [4] (first compound 0.1 µM) it was 0.681. Moreover, the values for the relative viability in assay [4] (first compound 0.3162 µM) and in assay [4] (first compound 1 µM) were 0.948 and 0.919, respectively.

On to NCI-H838, for which the relative viability in assay [1] (first compound 0.01 µM) turned out to be 0.347; in assay [1] (first compound 0.03162 µM), 0.269; in assay [1] (first compound 0.1 µM), 0.186; in assay [1] (first compound 0.3162 µM) it was 0.173; in assay [1] (first compound 1 µM), 0.174; in assay [2] (first compound 0.01 µM), 0.394. The relative viability in assay [2] (first compound 0.03162 µM) worked out at 0.31; in assay [2] (first compound 0.1 µM), 0.272; in assay [2] (first compound 0.3162 µM) it was 0.162; in assay [2] (first compound 1 µM), 0.194; in assay [3] (first compound 0.01 µM) it was 0.996; in assay [3] (first compound 0.03162 µM), 1.02. Also, the relative viability was 0.617 in assay [3] (first compound 0.1 µM); 0.478 in assay [3] (first compound 0.3162 µM); 0.171 in assay [3] (first compound 1 µM); 0.884 in assay [4] (first compound 0.01 µM); 0.857 in assay [4] (first compound 0.03162 µM); 0.805 in assay [4] (first compound 0.1 µM). In addition, the relative viability in assay [4] (first compound 0.3162 µM) was found to be 0.787; in assay [4] (first compound 1 µM) it was 0.722.

Turning to LU99A, the relative viability in assay [1] (first compound 0.01 µM) came out at 0.253; in assay [1] (first compound 0.03162 µM), 0.289; in assay [1] (first compound 0.1 µM), 0.259; in assay [1] (first compound 0.3162 µM), 0.234; in assay [1] (first compound 1 µM), 0.161; in assay [2] (first compound 0.01 µM), 0.279. The relative viability worked out at 0.255 in assay [2] (first compound 0.03162 µM); 0.246 in assay [2] (first compound 0.1 µM); 0.22 in assay [2] (first compound 0.3162 µM); 0.217 in assay [2] (first compound 1 µM); 1.09 in assay [3] (first compound 0.01 µM); 1.18 in assay [3] (first compound 0.03162 µM). Also, the relative viability was 0.521 in assay [3] (first compound 0.1 µM); 0.347 in assay [3] (first compound 0.3162 µM); 0.167 in assay [3] (first compound 1 µM); 0.424 in assay [4] (first compound 0.01 µM); 0.351 in assay [4] (first compound 0.03162 µM); 0.17 in assay [4] (first compound 0.1 µM). Also, the values for the relative viability in assay [4] (first compound 0.3162 µM) and in assay [4] (first compound 1 µM) were 0.175 and 0.117, respectively.
